How the values were obtained:
Format in all cases: biochemical
Lck = target: T1, Lck (Homo sapiens, UniProt P06239); experiment: Kinase inhibition assay (33P transfer), Lck; conditions: Table 3, class symbols; read-out: Lck-1
T1 construct: Kinases are expressed as either kinase domains or full length constructs; made in house
Method in brief: (§1)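 Each kinase, expressed as a GST- or polyHis-tagged domain or full-length protein, phosphorylated plate-attached poly(Glu,Tyr) 4:1 or poly(Arg,Ser) 3:1 using 33P-ATP. Bound radioactivity was measured by scintillation after a 0.5% phosphoric acid wash.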

Zap-70 = target: T2, Zap-70 (Homo sapiens, UniProt P43403); experiment: Kinase inhibition assay (33P transfer), Zap-70; conditions: Table 3, class symbols; read-out: Zap-1
T2 construct: Kinases are expressed as either kinase domains or full length constructs; made in house
T2 sequence (P43403 1-619): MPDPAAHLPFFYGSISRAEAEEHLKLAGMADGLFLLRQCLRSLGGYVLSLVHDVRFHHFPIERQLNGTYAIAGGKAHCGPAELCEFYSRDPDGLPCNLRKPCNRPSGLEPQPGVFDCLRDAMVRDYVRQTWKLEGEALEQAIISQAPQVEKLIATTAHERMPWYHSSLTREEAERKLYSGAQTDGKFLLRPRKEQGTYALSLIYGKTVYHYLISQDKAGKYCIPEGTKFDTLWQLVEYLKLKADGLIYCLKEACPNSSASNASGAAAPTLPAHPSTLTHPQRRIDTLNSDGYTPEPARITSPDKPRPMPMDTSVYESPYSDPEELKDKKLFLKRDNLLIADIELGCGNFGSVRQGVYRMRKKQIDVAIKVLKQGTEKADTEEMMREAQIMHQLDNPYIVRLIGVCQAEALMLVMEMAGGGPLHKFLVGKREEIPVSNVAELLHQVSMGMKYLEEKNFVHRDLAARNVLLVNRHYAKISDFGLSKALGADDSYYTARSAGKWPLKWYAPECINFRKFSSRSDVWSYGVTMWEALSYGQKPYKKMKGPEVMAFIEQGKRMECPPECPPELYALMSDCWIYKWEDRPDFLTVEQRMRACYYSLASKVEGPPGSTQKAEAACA
Method in brief: as §1

Itk = target: T3, Itk (Homo sapiens, UniProt Q08881); experiment: Kinase inhibition assay (33P transfer), Itk; conditions: Table 3, class symbols; read-out: Itk-1
T3 construct: Kinases are expressed as either kinase domains or full length constructs; made in house
T3 sequence (Q08881 1-620): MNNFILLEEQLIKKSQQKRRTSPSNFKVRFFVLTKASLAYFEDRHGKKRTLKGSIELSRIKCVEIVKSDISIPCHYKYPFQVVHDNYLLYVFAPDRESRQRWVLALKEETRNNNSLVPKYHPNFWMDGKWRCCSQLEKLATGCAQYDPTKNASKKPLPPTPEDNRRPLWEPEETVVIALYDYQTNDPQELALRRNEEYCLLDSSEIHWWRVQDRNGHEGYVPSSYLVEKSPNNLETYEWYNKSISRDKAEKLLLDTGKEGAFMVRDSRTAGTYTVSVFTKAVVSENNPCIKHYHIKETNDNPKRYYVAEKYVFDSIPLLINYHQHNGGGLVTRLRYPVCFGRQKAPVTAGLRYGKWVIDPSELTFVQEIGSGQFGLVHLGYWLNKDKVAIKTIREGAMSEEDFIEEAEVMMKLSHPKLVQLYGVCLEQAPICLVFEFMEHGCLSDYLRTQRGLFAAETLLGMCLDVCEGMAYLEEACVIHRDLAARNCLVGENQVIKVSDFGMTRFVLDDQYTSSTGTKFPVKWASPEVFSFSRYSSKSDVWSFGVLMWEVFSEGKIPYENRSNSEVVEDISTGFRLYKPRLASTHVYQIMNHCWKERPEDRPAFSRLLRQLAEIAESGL
Method in brief: (§2)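 Read-out: scintillation counts of 33P moved from ATP onto synthetic peptide polymer coated on the well surface, after washing with 0.5% phosphoric acid. Enzymes were tagged (GST or polyHistidine) and came from bacterial or insect-cell expression. IC50 marks 50% loss of incorporated label.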

EGFR = target: T4, EGFR (Homo sapiens, UniProt P00533); experiment: Kinase inhibition assay (33P transfer), EGFR; conditions: Table 2, class symbols A-E; read-out: EGFR-1
T4 construct: Kinases are expressed as either kinase domains or full length constructs; made in house
Method in brief: as §2

ErbB2 = target: T5, ErbB2 (Homo sapiens, UniProt P04626); experiment: Kinase inhibition assay (33P transfer), ErbB2; conditions: read-out: ErbB2-2
T5 construct: Kinases are expressed as either kinase domains or full length constructs; made in house
Method in brief: as §2

Kdr = target: T6, Kdr (Homo sapiens, UniProt P35968); experiment: Kinase inhibition assay (33P transfer), Kdr; conditions: Table 3, class symbols; read-out: KDR-1
T6 construct: Kinases are expressed as either kinase domains or full length constructs; made in house
Method in brief: as §1

c-Met = target: T7, c-Met (Homo sapiens, UniProt P08581); experiment: Kinase inhibition assay (33P transfer), c-Met; conditions: Table 2, class symbols A-E; read-out: Met-1
T7 construct: Kinases are expressed as either kinase domains or full length constructs; made in house
Method in brief: as §2

AKT = target: T8, AKT (Homo sapiens, UniProt Q9Y243); experiment: Kinase inhibition assay (33P transfer), AKT; conditions: Table 2, class symbols A-E; read-out: AKT3-1
T8 construct: Kinases are expressed as either kinase domains or full length constructs; made in house
Method in brief: as §1

IGFR-1 = target: T9, IGFR-1 (Homo sapiens, UniProt P08069); experiment: Kinase inhibition assay (33P transfer), IGFR-1; conditions: Table 2, class symbols A-E
T9 construct: Kinases are expressed as either kinase domains or full length constructs; made in house

PDGFRB = target: T10, PDGFRB (Homo sapiens, UniProt P09619); experiment: Kinase inhibition assay (33P transfer), PDGFRB; conditions: read-out: PDGFRB-1
T10 construct: Kinases are expressed as either kinase domains or full length constructs; made in house
T10 sequence (P09619 33-1106, species assumed): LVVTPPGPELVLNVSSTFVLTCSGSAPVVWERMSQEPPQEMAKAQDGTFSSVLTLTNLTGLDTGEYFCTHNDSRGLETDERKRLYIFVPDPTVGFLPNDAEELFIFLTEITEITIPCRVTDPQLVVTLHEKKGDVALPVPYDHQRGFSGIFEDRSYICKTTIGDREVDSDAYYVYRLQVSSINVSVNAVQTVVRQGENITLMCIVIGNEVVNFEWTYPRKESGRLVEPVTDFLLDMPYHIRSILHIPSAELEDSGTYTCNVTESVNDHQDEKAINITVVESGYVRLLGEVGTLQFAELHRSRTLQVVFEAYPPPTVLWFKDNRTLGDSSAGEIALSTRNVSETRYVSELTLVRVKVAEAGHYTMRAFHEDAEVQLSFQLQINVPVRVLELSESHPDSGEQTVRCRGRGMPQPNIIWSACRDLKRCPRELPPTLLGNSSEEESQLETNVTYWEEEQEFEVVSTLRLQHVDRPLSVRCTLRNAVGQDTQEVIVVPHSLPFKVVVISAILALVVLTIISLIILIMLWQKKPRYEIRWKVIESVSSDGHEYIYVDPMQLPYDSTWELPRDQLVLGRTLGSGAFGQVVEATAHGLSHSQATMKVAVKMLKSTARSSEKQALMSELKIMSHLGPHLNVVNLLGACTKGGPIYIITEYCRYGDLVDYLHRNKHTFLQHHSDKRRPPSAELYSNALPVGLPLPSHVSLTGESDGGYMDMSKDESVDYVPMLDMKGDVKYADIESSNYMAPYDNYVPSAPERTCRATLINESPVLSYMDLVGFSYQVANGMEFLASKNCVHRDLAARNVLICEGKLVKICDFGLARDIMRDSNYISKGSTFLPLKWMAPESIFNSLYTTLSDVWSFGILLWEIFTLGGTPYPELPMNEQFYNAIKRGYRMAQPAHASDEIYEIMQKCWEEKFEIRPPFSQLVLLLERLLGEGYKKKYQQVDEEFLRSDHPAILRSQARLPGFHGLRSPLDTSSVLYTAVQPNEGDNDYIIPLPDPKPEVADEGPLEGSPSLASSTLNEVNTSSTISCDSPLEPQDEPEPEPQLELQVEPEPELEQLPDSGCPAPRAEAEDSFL

T4 sequence (P00533 25-1210, species assumed): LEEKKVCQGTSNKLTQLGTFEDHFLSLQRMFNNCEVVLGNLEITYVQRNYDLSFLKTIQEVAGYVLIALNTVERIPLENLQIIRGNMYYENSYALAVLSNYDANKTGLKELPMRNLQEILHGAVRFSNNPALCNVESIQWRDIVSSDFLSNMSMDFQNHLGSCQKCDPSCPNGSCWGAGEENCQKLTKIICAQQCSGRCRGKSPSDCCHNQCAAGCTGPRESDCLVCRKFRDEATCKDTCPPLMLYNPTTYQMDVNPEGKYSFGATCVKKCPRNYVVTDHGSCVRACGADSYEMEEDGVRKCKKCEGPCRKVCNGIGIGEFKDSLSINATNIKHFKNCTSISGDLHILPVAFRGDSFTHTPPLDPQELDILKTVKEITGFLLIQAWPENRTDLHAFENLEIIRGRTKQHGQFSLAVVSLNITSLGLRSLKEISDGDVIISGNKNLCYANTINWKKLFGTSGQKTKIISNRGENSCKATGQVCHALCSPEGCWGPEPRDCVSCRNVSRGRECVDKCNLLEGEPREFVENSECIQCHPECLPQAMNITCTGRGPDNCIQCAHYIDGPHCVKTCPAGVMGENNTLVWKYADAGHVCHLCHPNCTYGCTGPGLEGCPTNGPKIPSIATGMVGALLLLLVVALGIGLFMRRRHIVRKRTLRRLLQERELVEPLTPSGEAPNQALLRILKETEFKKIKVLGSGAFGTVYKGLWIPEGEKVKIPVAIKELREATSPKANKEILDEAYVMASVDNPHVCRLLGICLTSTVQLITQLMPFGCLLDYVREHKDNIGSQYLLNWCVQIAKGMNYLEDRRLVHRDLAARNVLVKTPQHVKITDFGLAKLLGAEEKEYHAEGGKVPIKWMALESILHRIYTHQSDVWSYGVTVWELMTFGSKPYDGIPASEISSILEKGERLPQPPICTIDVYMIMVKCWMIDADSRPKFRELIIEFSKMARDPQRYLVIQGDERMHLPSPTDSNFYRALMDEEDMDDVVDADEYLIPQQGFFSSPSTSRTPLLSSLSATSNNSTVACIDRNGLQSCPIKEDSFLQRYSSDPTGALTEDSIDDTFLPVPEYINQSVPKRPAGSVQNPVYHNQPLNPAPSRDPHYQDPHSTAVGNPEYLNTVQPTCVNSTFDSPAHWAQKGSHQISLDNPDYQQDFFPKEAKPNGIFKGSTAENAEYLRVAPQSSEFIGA
T6 sequence (P35968 20-1356, species assumed): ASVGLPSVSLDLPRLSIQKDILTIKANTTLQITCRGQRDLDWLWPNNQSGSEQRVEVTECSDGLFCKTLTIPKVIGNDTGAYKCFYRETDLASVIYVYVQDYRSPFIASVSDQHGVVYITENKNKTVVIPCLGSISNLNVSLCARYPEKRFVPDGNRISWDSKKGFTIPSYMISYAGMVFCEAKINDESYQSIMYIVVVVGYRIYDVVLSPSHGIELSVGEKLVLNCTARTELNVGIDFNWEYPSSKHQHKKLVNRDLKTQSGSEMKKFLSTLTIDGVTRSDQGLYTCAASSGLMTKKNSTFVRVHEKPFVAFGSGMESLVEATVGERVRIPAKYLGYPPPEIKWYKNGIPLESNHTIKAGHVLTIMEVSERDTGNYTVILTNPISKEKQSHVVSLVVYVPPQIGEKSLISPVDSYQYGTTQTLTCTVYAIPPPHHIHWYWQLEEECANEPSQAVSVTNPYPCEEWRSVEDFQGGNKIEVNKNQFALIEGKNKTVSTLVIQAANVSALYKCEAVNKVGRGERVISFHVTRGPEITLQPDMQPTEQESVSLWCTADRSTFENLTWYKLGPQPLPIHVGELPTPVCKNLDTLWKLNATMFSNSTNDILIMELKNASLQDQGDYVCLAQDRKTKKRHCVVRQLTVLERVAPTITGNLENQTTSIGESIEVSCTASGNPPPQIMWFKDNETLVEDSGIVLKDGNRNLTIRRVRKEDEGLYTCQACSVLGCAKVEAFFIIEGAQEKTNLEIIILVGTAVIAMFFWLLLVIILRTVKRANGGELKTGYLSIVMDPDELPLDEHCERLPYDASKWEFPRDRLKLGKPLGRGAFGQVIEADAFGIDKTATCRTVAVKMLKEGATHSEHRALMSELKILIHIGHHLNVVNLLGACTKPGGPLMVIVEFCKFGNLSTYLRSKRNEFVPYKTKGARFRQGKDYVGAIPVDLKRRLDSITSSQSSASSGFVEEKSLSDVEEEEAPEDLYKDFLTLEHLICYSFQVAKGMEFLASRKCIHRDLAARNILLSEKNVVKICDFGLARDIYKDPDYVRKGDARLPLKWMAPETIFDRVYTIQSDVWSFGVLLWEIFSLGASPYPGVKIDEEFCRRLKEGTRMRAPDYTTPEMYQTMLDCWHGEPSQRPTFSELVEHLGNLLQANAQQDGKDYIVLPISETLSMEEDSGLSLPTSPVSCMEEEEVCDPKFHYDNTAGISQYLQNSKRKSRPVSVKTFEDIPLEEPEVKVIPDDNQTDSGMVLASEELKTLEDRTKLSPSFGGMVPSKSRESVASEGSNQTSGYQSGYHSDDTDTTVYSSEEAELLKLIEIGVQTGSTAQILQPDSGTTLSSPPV
T7 sequence (P08581 25-1390): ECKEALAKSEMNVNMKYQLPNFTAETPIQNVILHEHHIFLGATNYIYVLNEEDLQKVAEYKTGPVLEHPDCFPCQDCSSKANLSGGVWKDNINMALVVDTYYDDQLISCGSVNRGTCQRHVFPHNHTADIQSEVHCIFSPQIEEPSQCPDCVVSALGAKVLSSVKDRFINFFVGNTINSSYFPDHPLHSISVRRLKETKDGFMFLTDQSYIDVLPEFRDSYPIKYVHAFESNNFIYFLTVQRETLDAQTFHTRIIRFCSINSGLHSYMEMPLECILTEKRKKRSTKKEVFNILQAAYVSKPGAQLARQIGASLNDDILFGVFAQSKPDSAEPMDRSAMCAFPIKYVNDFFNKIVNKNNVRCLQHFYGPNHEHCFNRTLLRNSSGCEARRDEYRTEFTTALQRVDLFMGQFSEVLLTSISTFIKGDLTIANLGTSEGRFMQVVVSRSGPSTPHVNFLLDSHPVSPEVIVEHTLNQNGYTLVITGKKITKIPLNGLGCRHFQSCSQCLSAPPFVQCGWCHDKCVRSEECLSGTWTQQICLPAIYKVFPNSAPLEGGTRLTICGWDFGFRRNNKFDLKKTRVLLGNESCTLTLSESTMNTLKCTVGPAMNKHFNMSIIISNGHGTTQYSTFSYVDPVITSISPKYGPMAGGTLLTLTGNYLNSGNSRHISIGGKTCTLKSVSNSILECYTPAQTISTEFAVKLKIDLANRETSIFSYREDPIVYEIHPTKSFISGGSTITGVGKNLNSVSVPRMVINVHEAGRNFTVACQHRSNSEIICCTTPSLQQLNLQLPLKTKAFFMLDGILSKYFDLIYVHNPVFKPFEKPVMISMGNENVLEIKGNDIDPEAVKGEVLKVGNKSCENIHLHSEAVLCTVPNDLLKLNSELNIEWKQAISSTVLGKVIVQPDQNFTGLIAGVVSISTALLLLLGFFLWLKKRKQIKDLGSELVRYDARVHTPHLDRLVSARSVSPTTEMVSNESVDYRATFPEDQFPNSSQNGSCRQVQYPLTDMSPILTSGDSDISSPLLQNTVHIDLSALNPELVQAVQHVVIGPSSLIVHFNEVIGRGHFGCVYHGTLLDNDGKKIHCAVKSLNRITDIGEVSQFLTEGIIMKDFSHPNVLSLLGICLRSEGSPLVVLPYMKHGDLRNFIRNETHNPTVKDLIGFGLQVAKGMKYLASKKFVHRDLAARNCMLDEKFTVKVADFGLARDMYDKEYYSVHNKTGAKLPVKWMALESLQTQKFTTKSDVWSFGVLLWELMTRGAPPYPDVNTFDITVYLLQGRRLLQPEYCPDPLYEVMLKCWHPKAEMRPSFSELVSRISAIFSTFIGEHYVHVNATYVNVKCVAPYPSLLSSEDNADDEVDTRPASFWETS

| SMILES | IC50 (Lck) [µM] | IC50 (Zap-70) [µM] | IC50 (Itk) [µM] | IC50 (EGFR) [µM] | IC50 (ErbB2) [µM] | IC50 (Kdr) [µM] | IC50 (c-Met) [µM] | IC50 (AKT) [µM] | IC50 (IGFR-1) [µM] | IC50 (PDGFRB) [µM] |
| --- | --- | --- | --- | --- | --- | --- | --- | --- | --- | --- |
| Cc1ccc(Cl)cc1Nc1ncnc(Nc2cc(Cl)ccc2C)n1 [Compound 638] | > 12.5 | > 12.5 | > 12.5 | < 1.11 | 9.72 to 12.5 | 9.72 to 12.5 | > 12.5 | > 12.5 | 9.72 to 12.5 | 1.11 to 6.66 |
| COc1cc(Nc2ncnc(-n3ccnc3Cl)n2)cc(OC)c1OC [Compound 1071] | 9.65 to 12.4 | > 12.4 | 1.1 to 6.62 | 1.1 to 6.62 | > 12.4 | 9.65 to 12.4 | > 12.4 | > 12.4 | 1.1 to 6.62 | 1.1 to 6.62 |
| COc1cc(Nc2ncnc(N3CCCc4c(Cl)cccc43)n2)cc(OC)c1OC [Compound 643] | > 10.5 | > 10.5 | > 10.5 | < 0.935 | 0.935 to 5.61 | 0.935 to 5.61 | 0.935 to 5.61 | > 10.5 | > 10.5 | < 0.935 |
| COc1cc(C)c(Nc2ncnc(Nc3cc(-c4ccc(Cl)cc4)n[nH]3)n2)cc1OC [Compound 1128] | 0.913 to 5.48 | > 10.3 | 0.913 to 5.48 | 7.99 to 10.3 | 0.913 to 5.48 | 0.913 to 5.48 | 0.913 to 5.48 | > 10.3 | < 0.913 | > 10.3 |
| COC(=O)c1ccc(-c2cc(Nc3ncnc(NCc4cccs4)n3)[nH]n2)cc1 [Compound 877] | > 11 | > 11 | 0.982 to 5.89 | 5.89 to 8.59 | > 11 | > 11 | 0.982 to 5.89 | > 11 | 8.59 to 11 | 0.982 to 5.89 |
| COc1ccc(CNc2ncnc(Nc3cc(-c4ccco4)n[nH]3)n2)cc1 [Compound 994] | > 12.4 | > 12.4 | > 12.4 | > 12.4 | > 12.4 | > 12.4 | > 12.4 | > 12.4 | > 12.4 | > 12.4 |
| COc1cc(Nc2ncnc(-c3cccnc3NCc3cccc4ccccc34)n2)cc(OC)c1OC [Compound 844] | > 9.1 | > 9.1 | > 9.1 | > 9.1 | 0.809 to 4.85 | < 0.809 | > 9.1 | > 9.1 | 4.85 to 7.08 | 0.809 to 4.85 |
| COc1cc(Nc2ncnc(-c3cccnc3Nc3cc(Cl)cc(Cl)c3)n2)cc(OC)c1OC [Compound 837] | > 9.01 | > 9.01 | > 9.01 | > 9.01 | > 9.01 | > 9.01 | > 9.01 | > 9.01 | > 9.01 | > 9.01 |
| COc1cc(Nc2ncnc(-c3cccnc3NCc3ccccc3OC(F)(F)F)n2)cc(OC)c1OC [Compound 842] | > 8.51 | 6.62 to 8.51 | > 8.51 | > 8.51 | 6.62 to 8.51 | 0.757 to 4.54 | 6.62 to 8.51 | > 8.51 | > 8.51 | 4.54 to 6.62 |
| C=CCN(c1cccc(Cl)c1)c1ncnc(Nc2cc(OC)cc(OC)c2)n1 [Compound 722] | 1.01 to 6.03 | > 11.3 | < 1.01 | < 1.01 | 1.01 to 6.03 | < 1.01 | 1.01 to 6.03 | > 11.3 | 8.8 to 11.3 | 1.01 to 6.03 |
